Test results taken from patent US9187471B2, “Pyrido [4,3-b] indole and pyrido [3,4-b] indole derivatives and methods of use” (Medivation Technologies, Inc., priority 2010, dated 2015).

Assays:
[1] = molecular target: T1, human recombinant serotonin (5-Hydroxytryptamine) 5-HT2C receptor (Homo sapiens, UniProt P28335); assay: Serotonin 5-HT2C radioligand binding ([3H]Mesulergine); conditions: compound at 0.1 μM; read-out: Inhibition of ligand binding, Serotonin 5-HT2C (percent inhibition of specific binding)
T1 construct: expressed in transfected cells; host or cells: CHO-K1
T1 sequence (P28335 33-458): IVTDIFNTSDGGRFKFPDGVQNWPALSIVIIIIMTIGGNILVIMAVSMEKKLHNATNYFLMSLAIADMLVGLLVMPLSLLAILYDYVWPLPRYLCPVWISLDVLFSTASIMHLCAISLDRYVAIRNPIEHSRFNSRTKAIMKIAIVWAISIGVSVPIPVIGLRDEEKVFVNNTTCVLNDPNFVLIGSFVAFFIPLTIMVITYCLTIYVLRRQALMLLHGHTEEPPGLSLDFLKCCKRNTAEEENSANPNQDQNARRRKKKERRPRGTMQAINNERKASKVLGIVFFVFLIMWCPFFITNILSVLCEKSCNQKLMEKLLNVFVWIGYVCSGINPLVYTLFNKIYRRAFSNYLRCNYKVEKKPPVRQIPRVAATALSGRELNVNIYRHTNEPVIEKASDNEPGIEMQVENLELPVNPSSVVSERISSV
Method: Compounds of the invention were incubated with 1 nM [^3H]Mesulergine for 60 min at 25° C. Non-specific binding was estimated in the presence of 1 μM Mianserin. Receptor proteins were filtered and washed, the filters were then counted to determine [^3H]Mesulergine specifically bound.

[2] = molecular target: T2, human recombinant adrenergic α2C receptor (Homo sapiens, UniProt P18825); assay: Adrenergic α2C radioligand binding ([3H]MK-912); conditions: read-out: Adrenergic (0.1 μM) a2C, percent inhibition of specific binding; compound at 0.1 μM; 1 nM [3H]MK-912
T2 construct: expressed in transfected cells; host or cells: insect Sf9 cells
T2 sequence (P18825 1-462): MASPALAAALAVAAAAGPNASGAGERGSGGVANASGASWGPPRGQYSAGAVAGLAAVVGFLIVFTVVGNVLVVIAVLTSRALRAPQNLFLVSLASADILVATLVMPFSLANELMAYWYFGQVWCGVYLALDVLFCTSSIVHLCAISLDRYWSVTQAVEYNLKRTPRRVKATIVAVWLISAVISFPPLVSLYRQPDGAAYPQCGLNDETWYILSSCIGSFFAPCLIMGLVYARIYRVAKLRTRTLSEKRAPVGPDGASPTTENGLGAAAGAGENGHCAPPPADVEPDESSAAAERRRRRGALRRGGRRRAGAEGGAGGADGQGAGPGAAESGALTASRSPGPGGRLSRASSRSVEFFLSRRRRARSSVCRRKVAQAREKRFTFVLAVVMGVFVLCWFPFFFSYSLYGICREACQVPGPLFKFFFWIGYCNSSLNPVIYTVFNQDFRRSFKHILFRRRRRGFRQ
Method: To evaluate in radioligand binding assays the activity of compounds of the invention, human recombinant adrenergic α2C receptor expressed in insect Sf9 cells (Uhlen, S. et al, J. Pharmacol. Exp. Ther. 271:1558, 1994) in a modified Tris-HCl buffer (50 mM Tris-HCl, pH 7.4, 12.5 mM MgCl2, 2 mM EDTA) was used. Compounds of the invention were incubated with 1 nM [^3H]MK-912 for 60 min at 25° C. Non-specific binding was estimated in the presence of 10 μM WB-4101. Receptor proteins were filtered and washed, the filters were then counted to determine [^3H]MK-912 specifically bound. […] Compounds of the invention were tested in this biochemical assay and percent inhibition of specific binding was determined.

[3] = molecular target: T3, human recombinant serotonin (5-Hydroxytryptamine) 5-HT7 receptor (Homo sapiens, UniProt P34969); assay: Serotonin 5-HT7 radioligand binding ([3H]LSD); conditions: compound at 0.1 μM; read-out: Inhibition of ligand binding, Serotonin 5-HT7 (percent inhibition of specific binding)
T3 construct: expressed in transfected cells; host or cells: CHO
Method: Lysergic acid diethylamide (LSD) for 120 min. at 25° C. […] Receptor proteins were filtered and washed, the filters were then counted to determine [^3H]LSD specifically bound.

[4] = molecular target: T4, rat adrenergic α1A receptor (Rattus norvegicus, UniProt P43140); assay: Adrenergic α1A radioligand binding ([3H]Prazosin); conditions: read-out: Adrenergic (0.1 μM) a1A, percent inhibition of specific binding; compound at 0.1 μM; 0.25 nM [3H]Prazosin
T4 construct: rat adrenergic α1A receptor obtained from Wistar Rat submaxillary glands; from tissue; host or cells: Wistar rat submaxillary glands
T4 sequence (P43140 1-466): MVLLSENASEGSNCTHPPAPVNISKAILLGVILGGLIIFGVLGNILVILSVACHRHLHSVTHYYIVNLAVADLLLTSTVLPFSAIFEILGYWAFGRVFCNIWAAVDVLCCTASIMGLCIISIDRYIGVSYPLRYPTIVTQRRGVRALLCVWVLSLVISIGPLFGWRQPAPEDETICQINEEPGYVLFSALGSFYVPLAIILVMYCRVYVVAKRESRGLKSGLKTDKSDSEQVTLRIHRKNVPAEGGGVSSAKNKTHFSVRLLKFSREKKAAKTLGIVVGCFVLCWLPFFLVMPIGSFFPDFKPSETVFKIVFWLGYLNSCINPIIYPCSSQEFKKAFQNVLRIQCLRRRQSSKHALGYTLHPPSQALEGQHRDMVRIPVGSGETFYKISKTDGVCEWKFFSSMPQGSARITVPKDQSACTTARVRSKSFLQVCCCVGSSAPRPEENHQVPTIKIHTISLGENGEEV
Method: To evaluate in radioligand binding assays the activity of compounds of the invention, rat adrenergic α1A receptor obtained from Wistar Rat submaxillary glands (Michel, A. et al, Br. J. Pharmacol. 98:883, 1989) in a modified Tris-HCl buffer (50 mM Tris-HCl buffer, pH 7.4, 0.5 mM EDTA) was used. Compounds of the invention were incubated with 0.25 nM [^3H]Prazosin for 60 min at 25° C. Non-specific binding was estimated in the presence of 10 μM phentolamine Receptor proteins were filtered and washed, the filters were then counted to determine [^3H]Prazosin specifically bound. […] Compounds of the invention were tested in this biochemical assay and percent inhibition of specific binding was determined.

[5] = molecular target: T5, human recombinant serotonin (5-Hydroxytryptamine) 5-HT2A receptor (Homo sapiens, UniProt P28223); assay: Serotonin 5-HT2A radioligand binding ([3H]Ketanserin); conditions: compound at 0.1 μM; read-out: Inhibition of ligand binding, Serotonin 5-HT2A (percent inhibition of specific binding)
T5 construct: expressed in transfected cells; host or cells: CHO-K1
Method: Compounds of the invention were incubated with 0.5 nM [^3H]Ketanserin for 60 min at 25° C. Non-specific binding was estimated in the presence of 1 μM Mianserin. Receptor proteins were filtered and washed, the filters were then counted to determine [^3H]Ketanserin specifically bound.

[6] = molecular target: T6, human recombinant serotonin (5-Hydroxytryptamine) 5-HT6 receptor (Homo sapiens, UniProt P50406); assay: Serotonin 5-HT6 radioligand binding ([3H]LSD); conditions: compound at 0.1 μM; read-out: Inhibition of ligand binding, Serotonin 5-HT6 (percent inhibition of specific binding)
T6 construct: expressed in transfected cells; host or cells: HeLa
Source text: Receptor proteins were filtered and washed, the filters were then counted to determine [3H]LSD specifically bound.

[7] = molecular target: T7, human recombinant histamine H1 receptor (Homo sapiens, UniProt P35367); assay: Histamine H1 radioligand binding ([3H]Pyrilamine); conditions: read-out: Histamine H1 Binding (1 μM), percent inhibition of specific binding; compound at 1 μM; 1.2 nM [3H]Pyrilamine
T7 construct: expressed in transfected cells; host or cells: CHO-K1
Method: To evaluate in radioligand binding assays the activity of compounds of the invention, human recombinant histamine H1 receptor expressed in Chinese hamster ovary (CHO) K1 cells (De Backer, M. et al, Biochem. Biophys. Res. Comm. 197(3):1601, 1993) in a modified Tris-HCl buffer (50 mM Tris-HCl, pH 7.4, 2 mM MgCl2, 100 mM NaCl, 250 mM Sucrose) was used. […] Non-specific binding was estimated in the presence of 1 μM Pyrilamine. Receptor proteins were filtered and washed, the filters were then counted to determine [^3H]Pyrilamine specifically bound. […] Biochemical assay results are presented as the percent inhibition of specific binding in Table 2.

[8] = molecular target: T8, human recombinant dopamine D2L receptor (Homo sapiens, UniProt P14416); assay: Dopamine D2L radioligand binding ([3H]Spiperone); conditions: read-out: Dopamine D2L (1 μM), percent inhibition of specific binding; compound at 1 μM; 0.16 nM [3H]Spiperone
T8 construct: expressed in transfected cells; host or cells: CHO
Method: Non-specific binding was estimated in the presence of 10 μM Haloperidol. Receptor proteins were filtered and washed, the filters were then counted to determine [^3H]Spiperone specifically bound.

T5 sequence (P28223 whole entry): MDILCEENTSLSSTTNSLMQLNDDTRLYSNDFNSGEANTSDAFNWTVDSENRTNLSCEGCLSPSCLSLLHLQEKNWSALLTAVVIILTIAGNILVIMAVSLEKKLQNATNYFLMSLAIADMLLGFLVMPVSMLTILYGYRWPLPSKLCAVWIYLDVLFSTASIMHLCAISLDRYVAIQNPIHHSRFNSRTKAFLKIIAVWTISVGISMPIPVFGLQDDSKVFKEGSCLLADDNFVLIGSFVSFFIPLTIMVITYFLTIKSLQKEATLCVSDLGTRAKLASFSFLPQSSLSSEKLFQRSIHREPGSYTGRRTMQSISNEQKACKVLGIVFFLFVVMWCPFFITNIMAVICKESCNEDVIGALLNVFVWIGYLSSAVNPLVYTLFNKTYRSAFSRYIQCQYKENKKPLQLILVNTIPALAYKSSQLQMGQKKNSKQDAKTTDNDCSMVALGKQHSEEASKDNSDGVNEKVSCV
T3 sequence (P34969 whole entry): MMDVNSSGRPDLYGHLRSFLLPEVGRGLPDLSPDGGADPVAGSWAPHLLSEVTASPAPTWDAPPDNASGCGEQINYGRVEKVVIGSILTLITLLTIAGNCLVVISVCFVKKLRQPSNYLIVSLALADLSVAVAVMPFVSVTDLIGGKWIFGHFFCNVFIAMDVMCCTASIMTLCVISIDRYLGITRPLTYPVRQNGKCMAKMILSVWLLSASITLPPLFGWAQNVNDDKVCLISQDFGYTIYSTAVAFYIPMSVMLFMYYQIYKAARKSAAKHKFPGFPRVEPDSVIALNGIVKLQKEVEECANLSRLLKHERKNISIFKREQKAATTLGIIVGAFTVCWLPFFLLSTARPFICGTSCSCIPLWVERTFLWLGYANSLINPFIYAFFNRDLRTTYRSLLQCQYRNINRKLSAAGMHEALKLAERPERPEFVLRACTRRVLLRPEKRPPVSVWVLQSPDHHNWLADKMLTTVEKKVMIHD
T7 sequence (P35367 whole entry): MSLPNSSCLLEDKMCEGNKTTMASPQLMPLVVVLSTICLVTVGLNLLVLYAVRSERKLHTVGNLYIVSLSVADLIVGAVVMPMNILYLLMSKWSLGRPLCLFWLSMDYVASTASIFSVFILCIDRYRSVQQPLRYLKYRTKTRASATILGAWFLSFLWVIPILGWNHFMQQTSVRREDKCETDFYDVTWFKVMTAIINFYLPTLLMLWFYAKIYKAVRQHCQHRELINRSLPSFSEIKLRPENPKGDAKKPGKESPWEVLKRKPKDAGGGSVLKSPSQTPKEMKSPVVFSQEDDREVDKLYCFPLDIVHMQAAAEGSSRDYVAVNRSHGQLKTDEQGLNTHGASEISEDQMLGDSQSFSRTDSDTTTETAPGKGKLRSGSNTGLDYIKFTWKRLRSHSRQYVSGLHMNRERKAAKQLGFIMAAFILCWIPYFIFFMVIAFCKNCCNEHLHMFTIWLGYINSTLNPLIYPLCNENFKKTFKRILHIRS
T8 sequence (P14416 whole entry): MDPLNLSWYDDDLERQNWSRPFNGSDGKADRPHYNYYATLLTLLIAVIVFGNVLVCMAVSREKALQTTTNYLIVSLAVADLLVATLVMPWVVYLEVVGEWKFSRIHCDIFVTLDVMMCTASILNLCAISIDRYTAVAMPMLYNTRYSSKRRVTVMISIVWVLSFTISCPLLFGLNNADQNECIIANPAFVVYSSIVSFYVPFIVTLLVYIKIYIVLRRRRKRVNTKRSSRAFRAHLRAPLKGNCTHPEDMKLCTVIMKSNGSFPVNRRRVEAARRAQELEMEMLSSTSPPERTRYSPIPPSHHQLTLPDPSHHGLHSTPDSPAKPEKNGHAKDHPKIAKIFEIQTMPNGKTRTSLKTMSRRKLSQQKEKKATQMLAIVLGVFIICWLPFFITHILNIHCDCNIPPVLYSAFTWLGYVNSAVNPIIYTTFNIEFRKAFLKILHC
T6 sequence (P50406 whole entry): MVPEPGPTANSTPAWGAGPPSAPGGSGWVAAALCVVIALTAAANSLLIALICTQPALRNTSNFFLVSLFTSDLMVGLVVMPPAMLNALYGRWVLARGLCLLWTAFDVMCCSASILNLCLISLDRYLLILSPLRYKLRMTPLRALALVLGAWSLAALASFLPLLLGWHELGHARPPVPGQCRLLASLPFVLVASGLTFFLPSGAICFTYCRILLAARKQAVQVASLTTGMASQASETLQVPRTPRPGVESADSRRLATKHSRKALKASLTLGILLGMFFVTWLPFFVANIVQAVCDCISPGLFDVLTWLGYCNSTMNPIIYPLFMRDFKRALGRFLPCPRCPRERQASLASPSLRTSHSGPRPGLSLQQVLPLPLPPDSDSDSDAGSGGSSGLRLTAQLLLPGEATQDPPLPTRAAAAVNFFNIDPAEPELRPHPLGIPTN

Structure (SMILES)	inhibition at 0.1 µM [1] [%]	inhibition at 0.1 µM [2] [%]	inhibition at 0.1 µM [3] [%]	inhibition at 0.1 µM [4] [%]	inhibition at 0.1 µM [5] [%]	inhibition at 0.1 µM [6] [%]	inhibition at 1 µM [7] [%]	inhibition at 1 µM [8] [%]
Cc1ccc2c(c1)c1c(n2-c2ccccc2-c2ccc(F)cc2)CCN(C)C1 [Compound 10, 5-(4′-fluorobiphenyl-2-yl)-2,8-dimethyl-2,3,4,5-tetrahydro-1H-pyrido[4,3-b]indole]	94	67	73	59	93	57	82	26
Cc1ccc2c(c1)c1c(n2-c2ccoc2)CCN(C)C1 [Compound 15, 5-furan-3-yl-2,8-dimethyl-2,3,4,5-tetrahydro-1H-pyrido[4,3-b]indole]	77	7	57	28	72	51	80	19
Cc1ccc2c(c1)c1c(n2-c2ccccc2-c2ccncc2)CCN(C)C1 [Compound 5, 2,8-dimethyl-5-(2-pyridin-4-yl-phenyl)-2,3,4,5-tetrahydro-1H-pyrido[4,3-b]indole]	81	11	64	24	83	26	38	2
CN1CCc2c(c3cc(Cl)ccc3n2-c2cscc2-c2ccncc2)C1 [Compound 28]	76		95		68	45	46	20
CN1CCc2c(c3cc(Cl)ccc3n2-c2cscc2-c2ccc(F)cc2)C1 [Compound 25]	91		94		81	56	80	39
Cc1ccc2c(c1)c1c(n2-c2cccs2)CCN(C)C1 [Compound 16, 2,8-dimethyl-5-thiophen-2-yl-2,3,4,5-tetrahydro-1H-pyrido[4,3-b]indole]	89	17	62	7	94	74	86	49
Cc1ccc2c(c1)c1c(n2-c2ccncc2)CCN(C)C1 [Compound 2, 2,8-dimethyl-5-pyridin-4-yl-2,3,4,5-tetrahydro-1H-pyrido[4,3-b]indole]	54		36		74	17	51	13
Cc1ccc2c(c1)c1c(n2-c2ccccc2-c2ccccc2)CCN(C)C1 [Compound 8, 5-biphenyl-2-yl-2,8-dimethyl-2,3,4,5-tetrahydro-1H-pyrido[4,3-b]indole]	97		65		99	52	92	30
CN1CCc2c(c3cc(Cl)ccc3n2-c2cscc2-c2cccnc2)C1 [Compound 27]	72		94		67	30	76	26
Cc1ccc2c(c1)c1c(n2-c2ccc(C)nc2)CCN(C)C1 [Compound 3, 2,8-dimethyl-5-(6-methyl-pyridin-3-yl)-2,3,4,5-tetrahydro-1H-pyrido[4,3-b]indole]	26		8		36	20	10	16
COc1ccc(-n2c3c(c4cc(C)ccc42)CN(C)CC3)cn1 [Compound 17, 5-(6-Methoxy-pyridin-3-yl)-2,8-dimethyl-2,3,4,5-tetrahydro-1H-pyrido[4,3-b]indole]	44		1		62	17	23	10
Cc1ccc2c(c1)c1c(n2-c2cncn2C)CCN(C)C1 [Compound 18, 2,8-dimethyl-5-(3-methyl-3H-imidazol-4-yl)-2,3,4,5-tetrahydro-1H-pyrido[4,3-b]indole]	8		22		14	2	79	13
